The nature of data set [1]: Solubility of peptides in buffer.
For data set [2] the following is noted: not told.
A further data set concerns the target GppNHp-bound Rapla (Homo sapiens, UniProt P62834). The settings on record: Rapla versus Ras.
For data set [3], the system named is endogenous Ras in Capan-1 cell lysate. As to the kind of experiment: Peptide pulldown of Ras in Capan-1 cell lysate. In kind it is binding, human. Conditions: for pulldown of endogenous Ras by biotinylated peptide: 5 μM peptide, streptavidin beads, western blot.
The nature of data set [4]: Circular dichroism spectra and thermal melting at 222 nm. Type of data set: physicochemical. The settings on record: for Tm: CD at 222 nm; for effect of mutation on peptide secondary structure by CD: pH 12, compared to 225-3. (In general: Circular dichroism is widely used to follow secondary structure.)
Data set [5] has as its target KRas (G12V) loaded with mant-GppNHp (Homo sapiens, UniProt P01116, G12V). As to the kind of experiment: Mant nucleotide dissociation assay. Type of data set: biochemical. The settings on record: 1 μM Raf or peptide, 500 nM Ras, excess GppNHp.
A further data set deals with KRas (G12V).GppNHp (Homo sapiens, UniProt P01116, G12V). As to the kind of experiment: Fluorescence polarization binding of FITC-labeled 225-3 and its alanine mutants to KRas. Conditions: alanine mutants of 225-3. Background: Fluorescence polarisation rises when a labelled molecule tumbles more slowly, as on binding a larger partner.
Data set [6] concerns the target T1, endogenous Ras / Raf RBD interaction (Homo sapiens, UniProt P01116, G12V).
T1 construct: endogenous in cells; host or cells: Capan-1 lysate (Ras); the GST-Raf RBD was made in E. coli BL21 Rosetta I pLysS from pGEX-5X
The data set can be described thus: GST-Raf RBD pulldown of Ras in Capan-1 cell lysate, competition by peptide. In kind it is biochemical. Conditions: lysate pre-incubated with 10 μM peptide.

Data set [7] has as its system H358 lung adenocarcinoma cells. The data set can be described thus: Live-cell confocal microscopy with fluorescein-labeled peptides. In kind it is cell-based, human. The settings on record: 5 uM, compared to SEQ ID NO: 10. As for the experimental part:
Human tumor cell lines (e.g., H358 or HPAF-II) were seeded into LabTek II culture chambers in DMEM media supplemented with 10% fetal calf serum and grown overnight at 37° C. under standard cell culture conditions. The following day, media was replaced with media containing 5 uM of fluorescein-labeled peptide and incubated for 4 hours at 37° C. The cells were washed, stained with NucBlue Hoechst 33342 and Dextran 10k Alexa647, then imaged on a confocal microscope. The fluorescent peptides were visualized with a 488 nm laser and is shown in green in FIGS. 34A-B.

A further data set addresses KRas (Homo sapiens, UniProt P01116, G12V). The data set can be described thus: Yeast surface display binding to KRas (FACS).
For the next data set, the target named is Myc/Max heterodimer (Homo sapiens, UniProt P01106+P61244). The data set can be described thus: Yeast surface display binding to Myc/Max. The settings on record: FIG. 38C. From the text: (§1) Experimental for yeast display assays were similar to those used for FIG. 9. MY01 peptide of SEQ ID NO: 43 corresponds to the indicated high-binding population in FIG. 38C. Purification of the RalA protein was similar to the methods used for KRas constructs as discussed previously.
Purification of the Myc/Max proteins was done as follows. A bicistronic pET vector containing His6-yBBr-TEV-Myc (residues 353-434) and untagged Max (residues 22-102) was transformed into chemically competent BL21 cells. The cells were grown to OD600=0.7, induced with 0.25 mM IPTG for 5 hours at 30° C., then harvested and resuspended in lysis buffer (20 mM HEPES pH 7.5, 500 mM KCl, 5% glycerol) prior to snap-freezing in liquid nitrogen. For purification, the pellet was thawed, raised to 40 ml in the same buffer, and mixed with a Roche Complete EDTA-free protease inhibitor tablet. The cells were lysed with a tip sonicator (VirSonic, 6 cycles of 10 s on, 15 s off at 6.5 power level), then pelleted at 30,000×g for 30 minutes and filtered through a 0.45 uM Tuffryn membrane (Pall Corporation). The clarified lysate was added to 2 ml of HisPur Ni-NTA resin (Thermo Pierce) that had been equilibrated with the same buffer, and drained by gravity. The column was washed with 20 ml of buffer, then protein was eluted with buffer containing 150 mM imidazole and some protease inhibitor. […]

The target in another data set is T2, RalA (Homo sapiens, UniProt P11233).
T2 sequence (P11233 1-206): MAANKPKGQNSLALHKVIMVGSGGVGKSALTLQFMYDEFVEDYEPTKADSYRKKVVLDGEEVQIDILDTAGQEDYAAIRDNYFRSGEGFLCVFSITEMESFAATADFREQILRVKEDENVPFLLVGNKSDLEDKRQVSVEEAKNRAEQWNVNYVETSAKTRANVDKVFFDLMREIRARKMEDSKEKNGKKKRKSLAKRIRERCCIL
As to the kind of experiment: Yeast surface display binding to RalA. Conditions: FIG. 38A-B.
From the text: as §1

The next data set has as its target Ras (Homo sapiens, UniProt P01116, G12V). As to the kind of experiment: Ras binding of disulfide-protected peptide on addition of glutathione. Conditions: Cys protected with 2,2′-Dipyridyldisulfide; 5 mM reduced glutathione. From the text: This cysteine is uncaged in the presence of […] glutathione levels to form the disulfide-bonded species, which is a better Ras binder. […] The experimentals are the similar to those described for FIG. 19.

In brackets after ≈: the same amount, converted by molar mass. No end group written: not given here.

Broadly, the solubility is the concentration that dissolves in the medium under given conditions. The low end stands for little dissolved substance, the high end for much dissolved substance.

Regarding `CC[C@H](C)[C@H](NC(=O)[C@H](CO)NC(=O)[C@H](C)NC(=O)[C@H](CC(=O)O)NC(=O)[C@H](CC(=O)O)NC(=O)CNC(=O)[C@@H]1CCCN1C(=O)[C@H](Cc1ccc(O)cc1)NC(=O)[C@H](CCCNC(=N)N)NC(=O)[C@@H]1CCCN1C(=O)[C@H](CCCNC(=N)N)NC(=O)[C@H](CCCNC(=N)N)NC(=O)[C@@H]1CCCN1C(=O)CNC(=O)CNC(=O)[C@H](CS)NC(=O)CN)C(=O)N[C@@H](CCC(=O)O)C(=O)N[C@@H](CC(=O)O)C(=O)N[C@@H](CC(C)C)C(=O)N[C@@H](Cc1c[nH]cn1)C(=O)N[C@@H](CCC(=O)O)C(=O)N[C@@H](Cc1ccc(O)cc1)C(=O)N[C@@H](Cc1c[nH]c2ccccc12)C(=O)N[C@@H](C)C(=O)N[C@@H](CCCNC(=N)N)C(=O)N[C@@H](CC(C)C)C(=O)N[C@@H](Cc1c[nH]c2ccccc12)C(=O)N[C@@H](CC(N)=O)C(=O)N[C@@H](Cc1ccc(O)cc1)C(=O)N[C@@H](CC(C)C)C(=O)N[C@@H](Cc1ccc(O)cc1)C(=O)N[C@@H](C)C(=O)N[C@H](C(=O)N[C@@H](C)C(=O)O)C(C)C` [Peptide 225-1], the solubility in data set [1] lay in the range of 100 to 200 µM (≈ 407 to 814 µg/mL).
Turning to `CC[C@H](C)[C@H](NC(=O)[C@H](CO)NC(=O)[C@H](C)NC(=O)[C@H](CC(=O)O)NC(=O)[C@H](CC(=O)O)NC(=O)CNC(=O)[C@@H]1CCCN1C(=O)[C@H](Cc1ccc(O)cc1)NC(=O)[C@H](CCCNC(=N)N)NC(=O)[C@@H]1CCCN1C(=O)[C@H](CCCNC(=N)N)NC(=O)[C@H](CCCNC(=N)N)NC(=O)[C@@H]1CCCN1C(=O)[C@H](CCCNC(=N)N)NC(=O)[C@H](CCCNC(=N)N)NC(=O)[C@@H]1CCCN1C(=O)CNC(=O)CNC(=O)[C@H](CS)NC(=O)CN)C(=O)N[C@@H](CCC(=O)O)C(=O)N[C@@H](CC(=O)O)C(=O)N[C@@H](CC(C)C)C(=O)N[C@@H](Cc1c[nH]cn1)C(=O)N[C@@H](CCC(=O)O)C(=O)N[C@@H](Cc1ccc(O)cc1)C(=O)N[C@@H](Cc1c[nH]c2ccccc12)C(=O)N[C@@H](C)C(=O)N[C@@H](CCCNC(=N)N)C(=O)N[C@@H](CC(C)C)C(=O)N[C@@H](Cc1c[nH]c2ccccc12)C(=O)N[C@@H](CC(N)=O)C(=O)N[C@@H](Cc1ccc(O)cc1)C(=O)N[C@@H](CC(C)C)C(=O)N[C@@H](Cc1ccc(O)cc1)C(=O)N[C@@H](C)C(=O)N[C@H](C(=O)N[C@@H](C)C(=O)O)C(C)C` [Peptide 225-3], in [2], the cell permeability result is listed as “somewhat cell permeable”. In addition, the “binding weaker than to Ras” value at GppNHp-bound Rapla was “more than 100 fold”. In data set [3], the “pulldown of endogenous Ras by biotinylated peptide” value is given as “pulled down Ras”. In data set [3] (lysate pre-incubated with Raf RBD (3 μM)), the “pulldown of endogenous Ras by biotinylated peptide after Raf RBD pre-incubation” value was “not when the lysate was pre-incubated with the Raf RBD”. The Tm is 57 °C in data set [4] (pH 4.5) and 46.2 °C in data set [4] (pH 12).
For the compound “GCGGPRRPRRPRYPGDDASIEDLHEYAARLWNYLYAVA [Peptide W21A]”, the “effect of mutation on peptide secondary structure by CD” value (“effect of mutation” below) in [4] is “significant destabilizing effect”.
On the same count and under the same terms, the entry for “GCGGPRRPRRPRYPGDDASIEDLHEYWARLANYLYAVA [Peptide W25A]” is “significant destabilizing effect”.
Regarding “GCGGPRRPRRPRYPGDDASIEDLHEYWARLWAYLYAVA [Peptide N26A]”, the “effect on rate of mantGppNHp dissociation from KRas” value in data set [5] is “did not decrease the rate of dissociation”. Further, in [3], the “pulldown of endogenous Ras by biotinylated peptide” value is “not pulled down”. Also, the “reduction in measured binding affinity relative to 225-3” value at KRas (G12V).GppNHp is on record as “at least 100 fold”. For the same compound, the “effect of mutation” value in data set [4] is “unchanged compared to 225-3”. Moreover, in [6], the “effect on pulldown of Ras by GST-tagged Raf RBD” value is “did not disrupt this pulldown”.
As for “GCGGPRRPRYPGDAASIAALHAYWARLWNYLYRVA [SEQ ID NO: 28]”, the “solubility / aggregates in microscopy” value in data set [7] was “increased solubility”.
In the case of “GCGGPRRPRYPGDDACEEDLHEYWARLWNYLYAVA [225-1 S13C/I14E]”, the “binding of yeast-displayed peptide to KRas” value in the data set with KRas (5 nM KRas, mutant pre-incubated with free 225-1) is “binds Ras with increased affinity”.
With “GCGGPRRPRYPGDDASIEDLHEYWARLWNYLYRVA [225-1 A30R]”, the “selectivity KRas(GTP) vs KRas(GDP)” value with KRas (500 nM each of Ras.GTP and Ras.GDP, two-colour FACS) is given as “more selective for KRas (GTP) than 225-1”.
As to “GPRRPRCPGDDASIRDLLKYWWRLRLYLLAVA [SEQ ID NO: 43]”, the “binding to Myc/Max” value in the data set with Myc/Max heterodimer was “binds”.
On to “GPRRPRCPGDDASIRDLVMYWYRLYFYLEAVA [SEQ ID NO: 45]”, for which the “binding to KRas” value in the data set with KRas (yeast surface display, FIG. 38) is “binds both RalA and KRas”. For the same compound, the “binding to RalA” value with RalA was “binds both RalA and KRas”.
Take “GPRRPRCPGDDASISDLLLYWLRLDRYLWAVA [SEQ ID NO: 44]”: the “binding to RalA” value with RalA is reported as “binds”.
Consider “I14A: single alanine point mutant I14A of the 225-3 peptide (GCGGPRRPRRPRYPGDDASAEDLHEYWARLWNYLYAVA) [Peptide I14A]”, for which the “effect of mutation” value in data set [4] is “significant destabilizing effect”.
With “PRRPRCPGHAASIAALHAYWARLWNYLYRVR [Peptide 291-Q3]”, in the data set with Ras, the “change in Ras binding upon addition of reduced glutathione” value is on record as “increase in Ras binding”.
